Data reported in patent US20110160272A1, “METHODS AND COMPOSITIONS FOR USE OF ANGIOGENESIS INHIBITORS IN THE PREVENTION AND/OR CONTROL OF EPILEPSY” (priority 2004, published 2011).

Tested on: KASE rats
Experiment: Effect of angiogenesis inhibitor on spontaneous seizure development after kainic acid-induced status epilepticus (KASE)
Type: in vivo, rat
Conditions: KASE rats (n=4); twice daily injections for fourteen consecutive days beginning one week following KASE; first three weeks of monitoring, daily 8-hour observation sessions; relative to untreated KASE or control rats
Excerpt: We have administered HET0016, an inhibitor of angiogenesis, during the “latent period” that follows KASE and precedes the emergence of spontaneous seizures, to assess whether the development of spontaneous seizures could be impeded. Optimal doses for achieving antiangiogenesis have been established for some of these compounds in other pathological contexts and we have acquired some knowledge of the progression of angiogenesis following KASE using our temporal BrdU assay. On the basis of these observations, we administered a proven antiangiogenic compound at the optimal dosage established in other pathological contexts. This compound was administered to KASE rats (n=4) via twice daily injections for fourteen consecutive days, beginning one week following KASE. Four untreated KASE rats (n=4) received sham injections of diluent and were processed in parallel. Control rats (n=2) received neither KASE nor antiangiogenic therapy. The occurrence of spontaneous seizures in these cohorts was monitored during daily during 8-hour observation sessions beginning one week following KASE, and continues to the present.

## CCCCc1ccc(N=CNO)c(C)c1 [HET0016]
  development of spontaneous seizures (cumulative seizures, FIG. 7): impeded the development of spontaneous seizures
